Reference: the METLIN SMRT retention time set (Domingo-Almenara et al. 2019)

Experiment: gradient 5% acetonitrile 3 min, to 50% in 2 min, to 85% in 15 min, held 3 min, 100 µL/min
Conditions: column: Zorbax Extend-C18 2.1 x 50 mm; eluents: water / acetonitrile, 0.1% formic acid
Outline: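 Using water and acetonitrile that each contained 0.1% formic acid, mixtures of ~100 pure standards were separated at 100 μL/min on a Zorbax Extend-C18 column (2.1 × 50 mm, 1.8 μm). The HPLC fed a quadrupole time-of-flight mass spectrometer working in positive and negative ionization mode, with dead and dwell volumes of 40 μL and 900 μL. Data were acquired over 3 months. Retention time was read from computationally picked adduct peaks after manual inspection of each.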
With `CCc1nc(-c2cccc(-c3noc(CNC(=O)c4ccccc4)n3)c2)cs1` the RP-LC retention time was 1010 s. `CC1=NS(=O)(=O)N(Cc2ccccc2)C=C1C(=O)OCc1nc(-c2ccccc2Cl)no1` gave an RP-LC retention time of 1130 s. With `COc1ccc(-c2csc(NC(=O)Cn3c(=O)sc4ccccc43)n2)cc1` the RP-LC retention time was 951 s. `CC(C)(C)C(=O)Nc1ccc(N2CCN(CCC#N)CC2)cc1C(=O)O` showed an RP-LC retention time of 611 s. Work on `O=C(NC1CC1)c1ccc(OCC2CCCN2C(=O)c2cccc(F)c2)cc1` (stereo unspecified) yielded an RP-LC retention time of 778 s. For `COCCNC(=O)Cn1nc(-c2ccc(Cl)cc2)c2c(C)onc2c1=O`, the RP-LC retention time was 749 s. `Cc1ccccc1NC(=O)COc1cccc2c(=O)n(C)ccc12` gave an RP-LC retention time of 758 s. Work on `Cc1oc(-c2cccc(Cl)c2)nc1Cn1nnc(-c2nc(-c3ccccc3)no2)c1C` yielded an RP-LC retention time of 1320 s. Molecule `CN1CCCCCCN(C(=O)c2cccn2C)[C@H]2CCC[C@H]2C1=O` has an RP-LC retention time of 816 s. `CCCNC(=O)C1CCCN(c2nc3ncn(CC(=O)N4CCc5ccccc5C4)c(=O)c3s2)C1` (stereo unspecified) showed an RP-LC retention time of 705 s. Molecule `COc1ccc(NS(=O)(=O)c2c(C)sc(C)c2-c2cc(C(F)(F)F)on2)cc1Cl` has an RP-LC retention time of 1180 s. `CCOc1ccc(NC(=O)CSc2ccc(S(=O)(=O)c3ccccc3)nn2)cc1` gave an RP-LC retention time of 906 s. Work on `Cc1nc2ccn(Cc3cccs3)c(=O)c2cc1C(=O)NC1CCCC1` yielded an RP-LC retention time of 736 s. Molecule `O=C(Cc1cccc(F)c1)NC1CCN(c2cc(-c3ccc(F)cc3)[nH]n2)C1` (stereo unspecified) has an RP-LC retention time of 716 s. With `O=C(c1cncc(Br)c1)N1CCC(c2nnc(-c3ccco3)s2)CC1` the RP-LC retention time was 682 s. Work on `COc1ccc(-c2csc(NC(=O)CCc3c(C)[nH]c(=O)[nH]c3=O)n2)cc1` yielded an RP-LC retention time of 646 s. `CC(C)n1cnc2ccc(-c3noc(CCc4ccccc4)n3)cc21` showed an RP-LC retention time of 797 s. Molecule `COc1nn(C)cc1C(=O)Nc1cc(-c2cccs2)nn1CCO` has an RP-LC retention time of 630 s. `CCC(C)NC(=O)CSc1ccc(-n2nccc2-c2ccc(OC)cc2)nn1` (stereo unspecified) showed an RP-LC retention time of 989 s. For `O=C(CN1CCC(c2nc(-c3cccs3)no2)CC1)NCc1ccc2c(c1)OCO2`, the RP-LC retention time was 672 s. Molecule `CCCNS(=O)(=O)c1cc(-c2nc(C(C)C)cs2)sc1C` has an RP-LC retention time of 1160 s. In the case of `O=C(NC1CCCC1)NC1CCN(C(=O)C2CC2)C1` (stereo unspecified), the RP-LC retention time is reported as 631 s. With `CCCCN1N=C(C(=O)N2CCCCCC2)S(=O)(=O)c2ccccc21` the RP-LC retention time was 1030 s. Work on `Cc1nc2cc(-c3noc(-c4ccc(F)cc4)n3)ccc2n(C(C)C)c1=O` yielded an RP-LC retention time of 1200 s. `Cc1cc(C)cc(NC(=O)c2cnc(-c3ccccc3)nc2-c2ccncc2)c1` showed an RP-LC retention time of 988 s. Work on `CCOC(=O)C1CCCN(S(=O)(=O)c2cc(-c3nnc(-c4ccccc4)o3)ccc2OC)C1` (stereo unspecified) yielded an RP-LC retention time of 1020 s. With `CNC(=O)[C@@H]1CN(C(=O)Cn2c(=O)oc3ccccc32)C[C@H]1c1n[nH]c(C)n1` the RP-LC retention time was 578 s. `COC(=O)c1ccc(NC(=O)N2CCOc3ccc(C)cc32)cc1` gave an RP-LC retention time of 679 s. `O=C(O)C(Cc1c[nH]c2ccccc12)N1C(=O)c2ccccc2C1=O` (stereo unspecified) gave an RP-LC retention time of 858 s. In the case of `CCCN(Cc1ccc(OC)c(OC)c1)Cc1cc(=O)n2cccc(C)c2n1`, the RP-LC retention time is reported as 620 s. In the case of `CCc1nc(-c2csc(S(=O)(=O)N3CCCC(C(=O)Nc4ccccc4C)C3)c2)no1` (stereo unspecified), the RP-LC retention time is reported as 1010 s. For `CCCC(C)C(=O)NC1CCN(C2=NS(=O)(=O)C(c3ccc(CC)cc3)=C2C)CC1` (stereo unspecified), the RP-LC retention time was 927 s. In the case of `Cc1cc(OCC(=O)Nc2cccc(C)c2C)nc(N2CCN(c3ccccc3)CC2)n1`, the RP-LC retention time is reported as 885 s. For `CNc1nc(N(C)C)nc(N(C)C)n1`, the RP-LC retention time was 602 s. With `O=C1Nc2ccccc2OC1C(=O)N1CCC(Cc2ccccc2)CC1` (stereo unspecified) the RP-LC retention time was 920 s. `O=C(NCCn1nnc2cc(C(=O)N3CCCC3)ccc21)Nc1ccc(Cl)cc1` gave an RP-LC retention time of 792 s. With `CNS(=O)(=O)c1cc(C(=O)Nc2cc(C)on2)oc1C` the RP-LC retention time was 643 s. Work on `O=S(=O)(c1ccc(F)c(F)c1)N1CCc2nc(-c3ccc(Cl)cc3)ncc2C1` yielded an RP-LC retention time of 1230 s. `COc1ccc(CNc2ccc(S(=O)(=O)C(C)(C)C)nn2)cc1OC` gave an RP-LC retention time of 711 s. With `O=C(Nc1ccc2c(c1)OCCO2)N1CCCC1c1nc(CCOCC2CC2)no1` (stereo unspecified) the RP-LC retention time was 788 s. Molecule `COc1ccc(CC2c3cc(OC)c(OC)cc3CC[N+]2(C)C)cc1OC` (stereo unspecified) has an RP-LC retention time of 693 s. In the case of `COc1ccc(C2Cn3cnc(C(=O)N4CCC(C(=O)NCCc5cccs5)CC4)c3CO2)cc1` (stereo unspecified), the RP-LC retention time is reported as 691 s. `O=C(Nc1ccc(F)c(Cl)c1)N1CCCC1c1nc(-c2ccc(F)cc2F)no1` (stereo unspecified) gave an RP-LC retention time of 1070 s. Molecule `Cn1ccc(C(=O)N2CCNC(=O)C2(C)C)n1` has an RP-LC retention time of 527 s. Molecule `CCSc1nnc(-c2nn(C)c3c2CN(S(=O)(=O)c2cc(Cl)ccc2OC)CC3)n1CC` has an RP-LC retention time of 975 s. Work on `Cc1ccc(NC(=O)N2C[C@@H](F)C[C@H]2C(=O)N2CCc3ccccc3C2)c(C)c1` yielded an RP-LC retention time of 817 s. Work on `O=C(c1ccccc1Br)N1CCN(Cc2nc(-c3ccccc3)cs2)CC1` yielded an RP-LC retention time of 773 s. For `Fc1cc(F)cc(Cn2cccc2-c2nc(-c3ccncc3)no2)c1`, the RP-LC retention time was 1110 s. For `CN(Cc1ccc(OC(F)(F)F)cc1)C1CCc2nnc(C3CCOCC3)n2CC1` (stereo unspecified), the RP-LC retention time was 616 s. Molecule `Cc1cccc(Oc2nccnc2N2CCC(C(=O)NC3CCCCCC3)CC2)c1` has an RP-LC retention time of 1110 s. With `COCCNC(=O)CCc1c(-c2ccc(Cl)cc2)nc2ccccn12` the RP-LC retention time was 590 s. Work on `CCN1C(=O)c2cccnc2Sc2cc(CNC(=O)Cc3ccc(F)cc3)ccc21` yielded an RP-LC retention time of 761 s. Molecule `CCn1nc(C)n2cc(S(=O)(=O)NCc3cc(F)cc(F)c3)cc2c1=O` has an RP-LC retention time of 886 s. For `CCCNC(=O)C1CCCN(c2ccc(SCC(=O)Nc3ccc(OCC)cc3)nn2)C1` (stereo unspecified), the RP-LC retention time was 595 s. `Cc1nc2cc(N3CCC(C(=O)NCc4ccc5c(c4)OCO5)CC3)cnc2nc1C` showed an RP-LC retention time of 699 s. In the case of `O=C(Cc1cccs1)N1CCc2c([nH]c3ccccc23)C1c1ccc(Cl)cc1` (stereo unspecified), the RP-LC retention time is reported as 1220 s. `CCN(CC)c1ncc2c(n1)CCC(C(=O)NCc1cccc(OC)c1)C2` (stereo unspecified) showed an RP-LC retention time of 695 s. `CCOC(=O)c1nnn(-c2ccccc2OC)c1C(=O)OCC` gave an RP-LC retention time of 917 s. Work on `CN(C)CCNC(=O)c1cc2n(n1)CC(C)(C(=O)NCc1ccc(F)cc1)N(C)C2=O` (stereo unspecified) yielded an RP-LC retention time of 576 s. Work on `O=C(NC1CCCc2ccccc21)c1ccc2c(c1)OCCCO2` (stereo unspecified) yielded an RP-LC retention time of 958 s. `Cc1cc(N2CCN(C(=O)CCc3ccccc3)CC2)nc2nnc(C)n12` showed an RP-LC retention time of 616 s. `Cc1oc(C2CCN(C(=O)c3cc(F)ccc3F)CC2)nc1C(=O)N1CCCC1` gave an RP-LC retention time of 769 s. `CCOC(=O)Cn1c(=O)c2c(nc3n2CCN3c2ccc(OC)cc2)n(C)c1=O` gave an RP-LC retention time of 826 s. For `CCCCNC(=O)CCC1CCCN(c2cc(NCC)ncn2)C1` (stereo unspecified), the RP-LC retention time was 641 s. `Cn1c(=O)sc2cc(S(=O)(=O)N3CCC(C(=O)Nc4ccc5c(c4)OCCO5)CC3)ccc21` showed an RP-LC retention time of 812 s. For `Cn1c(CN2CCN(C(=O)c3ccco3)CC2)nc2cc(NC(=O)c3ccco3)ccc21`, the RP-LC retention time was 607 s.
